What all share (test): relative viability (nuclei count vs DMSO), 5 days (fraction); higher = more cells survive
Compound in the assay “XMD13-2 + Dasatinib”: C1CC1C(=O)NC2=NNC3=C2C=CC(=C3)C4=CC(=CC=C4)C(=O)NC5CC5 [XMD13-2] + Cc1nc(Nc2ncc(C(=O)Nc3c(C)cccc3Cl)s2)cc(N2CCN(CCO)CC2)n1 [Dasatinib] (partner 0.075 µM)
The essentials:
(§1)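 Relative viability divides the nuclei count in treated wells by that in vehicle wells. Lung cancer cell lines were seeded in 1536-well plates, dosed by pin tool the next day, and fixed and stained after 5 days in one step with final 0.05% Triton X-100, 1% formaldehyde and 1 ug/ml Hoechst. Dosing was a single drug or a fixed anchor-drug dose plus five library-drug doses (not always all listed) in √10 steps, and values are medians of duplicate plates imaged at 4×.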

Compound in the assay “ALW-II-49-7 + Navitoclax”: Cc1ccc(C(=O)Nc2cccc(C(F)(F)F)c2)cc1Nc1cncc(C(N)=O)c1 [ALW-II-49-7] + CC1(C)CCC(c2ccc(Cl)cc2)=C(CN2CCN(c3ccc(C(=O)NS(=O)(=O)c4ccc(N[C@H](CCN5CCOCC5)CSc5ccccc5)c(S(=O)(=O)C(F)(F)F)c4)cc3)CC2)C1 [Navitoclax] (partner 0.5 µM)
Put shortly: as §1

Compound in the assay “ALW-II-49-7 + Alpelisib”: Cc1ccc(C(=O)Nc2cccc(C(F)(F)F)c2)cc1Nc1cncc(C(N)=O)c1 [ALW-II-49-7] + Cc1nc(NC(=O)N2CCC[C@H]2C(N)=O)sc1-c1ccnc(C(C)(C)C(F)(F)F)c1 [Alpelisib] (partner 2 µM)
The essentials:
as §1

Compound in the assay “Dasatinib + Navitoclax”: Cc1nc(Nc2ncc(C(=O)Nc3c(C)cccc3Cl)s2)cc(N2CCN(CCO)CC2)n1 [Dasatinib] + CC1(C)CCC(c2ccc(Cl)cc2)=C(CN2CCN(c3ccc(C(=O)NS(=O)(=O)c4ccc(N[C@H](CCN5CCOCC5)CSc5ccccc5)c(S(=O)(=O)C(F)(F)F)c4)cc3)CC2)C1 [Navitoclax] (partner 0.5 µM)
The essentials: as §1

Turning to UMC-11, the relative viability is 0.55 with XMD13-2 + Dasatinib (first compound 0.05 µM); 0.428 in the assay with XMD13-2 + Dasatinib (first compound 0.1581 µM); 0.477 with XMD13-2 + Dasatinib (first compound 0.5 µM); 0.505 with XMD13-2 + Dasatinib (first compound 1.581 µM); 0.453 with XMD13-2 + Dasatinib (first compound 5 µM); 0.311 with ALW-II-49-7 + Navitoclax (first compound 0.08 µM). The relative viability stood at 0.345 in the assay with ALW-II-49-7 + Navitoclax (first compound 0.253 µM); 0.322 with ALW-II-49-7 + Navitoclax (first compound 2.53 µM); 0.335 with ALW-II-49-7 + Navitoclax (first compound 8 µM); 0.841 with ALW-II-49-7 + Alpelisib (first compound 0.08 µM); 1 with ALW-II-49-7 + Alpelisib (first compound 0.253 µM); 1.06 with ALW-II-49-7 + Alpelisib (first compound 2.53 µM). Besides, the relative viability with ALW-II-49-7 + Alpelisib (first compound 8 µM) came out at 0.971; in the assay with Dasatinib + Navitoclax (first compound 0.005 µM) it was 0.308; with Dasatinib + Navitoclax (first compound 0.01581 µM) it was 0.247; with Dasatinib + Navitoclax (first compound 0.05 µM), 0.275; with Dasatinib + Navitoclax (first compound 0.1581 µM), 0.246; with Dasatinib + Navitoclax (first compound 0.5 µM), 0.241.
